Tested on: HepG2 cells
Experiment: FACTORIAL transcription factor signature assay (reporter transcription units) in a test cell system
Format: cell-based, human

O=Cc1c2[nH]c3ccccc3c2cc2[nH]c3ccccc3c12 [6-formylindolo-[3,2-b]carbazole]
specific pathway shown by fluorescence peak manifestation (transcription factor signature) (HepG2 cells, after 24 hours exposure): Ahryloxane receptor (AhR)

[Cl][Cd][Cl] [cadmium dichloride]
reporter elements with most pronounced cellular response (transcription factor signature) (24 hours after exposure, 2.5 μM, 0.6 μM, 0.16 μM and 0.04 μM): most pronounced for the metallothionein response element (MRE) and the heat shock-response element (HSE)

lipopolysaccharide [endotoxin (lipopolysaccharide, LPS)]
most affected reporter transcription units (transcription factor signature) (24 hours after exposure): NF-kappaB and Interferon-specific response element (ISRE)

triphenyltin
most affected reporter transcription units (transcription factor signature) (24 hours after exposure): cellular heat shock response element (HSE), the peroxisome proliferator activating protein (PPAR) and the oxidative stress-specific RTU, NRF-2/ARE

From US11702707B2, “Systems and methods for assessing contamination of drinking water” (priority 2011, dated 2023)
